Values joined by “and” are separate entries in the source; they are usually repeats but may differ in a detail not shown here. Equal values may be shown once. Read-outs that look alike come from different tables or passages of the source.
Legend:
5-HT2A receptor = biological target: T1, 5-HT2A receptor (Homo sapiens, UniProt P28223); experiment: 5-HT2A Gq dissociation BRET functional assay; type: cell-based; conditions: for 5-HT2A BRET Eff %: normalized to % 5-HT stimulation
T1 construct: expressed in transfected cells; host or cells: HEK293T
T1 sequence (P28223 whole entry): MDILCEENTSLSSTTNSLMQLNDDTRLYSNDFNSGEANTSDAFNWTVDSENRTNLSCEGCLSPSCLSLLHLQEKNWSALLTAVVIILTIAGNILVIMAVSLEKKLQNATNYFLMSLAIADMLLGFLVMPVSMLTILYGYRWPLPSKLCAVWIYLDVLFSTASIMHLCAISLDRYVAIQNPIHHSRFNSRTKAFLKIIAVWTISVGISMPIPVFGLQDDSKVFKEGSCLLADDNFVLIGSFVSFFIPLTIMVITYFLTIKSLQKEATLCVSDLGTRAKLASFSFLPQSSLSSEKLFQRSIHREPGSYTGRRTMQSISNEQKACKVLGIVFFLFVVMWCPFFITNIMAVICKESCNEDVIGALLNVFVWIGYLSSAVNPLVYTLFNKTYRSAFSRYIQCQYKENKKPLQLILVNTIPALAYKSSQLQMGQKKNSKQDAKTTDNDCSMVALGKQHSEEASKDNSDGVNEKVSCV

[1] = plasma and brain PK in rat; type: in vivo; conditions: for Kp: brain; for clearance: read-out: Cltot (converted); for half-life: read-out: T1/2 Vz (converted); for Vd: read-out: Vz
From the text: (§1) Table 7a and Table 7b summarize, among other things, the observed plasma and Brain P K properties in animals, and the observed plasma and Brain P K properties predicted in humans, for compound 109 in Table 7a and compound 93 for Table 7b: […]

plasma PK in dog = type: in vivo; conditions: for clearance / half-life / Vd: dog; for clearance: read-out: Cltot (converted); for half-life: read-out: T1/2 Vz (converted); for Vd: read-out: Vz
From the text: as §1

hepatocyte = experiment: in vitro hepatocyte clearance, mouse; type: in vitro ADME; conditions: Mouse
Procedure: (§2) Additional experimentation was performed on compound 109. Table 6 summarizes, among other things, the anticipated hepatic clearance of compound 109 in various species, as specified in Table 6 and as determined by calculating the in vitro hepatocyte clearance over time and scaling such rate with such species' hepatocyte count and the anticipated liver blood flow rate in such species.

[2] = in vitro hepatocyte clearance, mouse; type: in vitro ADME; conditions: Mouse hepatocytes; for hepatocyte CLint: read-out: In vitro Clint (μL/min/10^6 cells); for half-life: read-out: In vitro T1/2; for CLint scaled: read-out: Scale-up Clint
Procedure: as §2

[3] = plasma and brain PK in mice; type: in vivo; conditions: mouse; for Kp: brain; for clearance: read-out: Cltot (converted); for half-life: read-out: T1/2 Vz (converted); for Vd: read-out: Vz
From the text: as §1

5-HT6 = 5-HT6 (Homo sapiens, UniProt P50406); experiment: 5-HT receptor activity panel (Table 3); type: cell-based
Chain of 5-HT6 (P50406 whole entry, species assumed): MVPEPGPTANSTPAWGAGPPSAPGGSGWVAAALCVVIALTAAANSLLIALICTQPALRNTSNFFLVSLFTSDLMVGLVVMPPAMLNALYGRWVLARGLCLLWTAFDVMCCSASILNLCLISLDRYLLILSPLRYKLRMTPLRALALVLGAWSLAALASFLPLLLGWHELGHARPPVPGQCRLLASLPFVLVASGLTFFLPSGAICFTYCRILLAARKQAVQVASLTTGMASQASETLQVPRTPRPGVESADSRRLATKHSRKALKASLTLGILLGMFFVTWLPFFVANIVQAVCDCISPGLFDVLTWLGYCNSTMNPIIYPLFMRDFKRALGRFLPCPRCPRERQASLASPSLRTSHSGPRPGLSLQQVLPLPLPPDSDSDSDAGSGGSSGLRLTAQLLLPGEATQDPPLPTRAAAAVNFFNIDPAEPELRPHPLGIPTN

5-HT1B = 5-HT1B (Homo sapiens, UniProt P28222); experiment: 5-HT receptor activity panel (Table 3); type: cell-based; conditions: Table 3
Chain of 5-HT1B (P28222 whole entry, species assumed): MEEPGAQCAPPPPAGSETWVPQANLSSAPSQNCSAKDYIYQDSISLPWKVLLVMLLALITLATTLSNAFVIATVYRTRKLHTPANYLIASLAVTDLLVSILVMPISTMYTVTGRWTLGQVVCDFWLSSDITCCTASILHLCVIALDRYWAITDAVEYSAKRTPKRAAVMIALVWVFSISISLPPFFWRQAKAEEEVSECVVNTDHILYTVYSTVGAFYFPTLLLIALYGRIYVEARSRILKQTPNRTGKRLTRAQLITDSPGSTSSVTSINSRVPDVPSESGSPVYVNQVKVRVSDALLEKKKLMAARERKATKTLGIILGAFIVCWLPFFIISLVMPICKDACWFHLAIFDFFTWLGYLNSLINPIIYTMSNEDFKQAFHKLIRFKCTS

5-HT4 = 5-HT4 (Homo sapiens, UniProt Q13639); experiment: 5-HT receptor activity panel (Table 3); type: cell-based; conditions: Table 3
Chain of 5-HT4 (Q13639 whole entry, species assumed): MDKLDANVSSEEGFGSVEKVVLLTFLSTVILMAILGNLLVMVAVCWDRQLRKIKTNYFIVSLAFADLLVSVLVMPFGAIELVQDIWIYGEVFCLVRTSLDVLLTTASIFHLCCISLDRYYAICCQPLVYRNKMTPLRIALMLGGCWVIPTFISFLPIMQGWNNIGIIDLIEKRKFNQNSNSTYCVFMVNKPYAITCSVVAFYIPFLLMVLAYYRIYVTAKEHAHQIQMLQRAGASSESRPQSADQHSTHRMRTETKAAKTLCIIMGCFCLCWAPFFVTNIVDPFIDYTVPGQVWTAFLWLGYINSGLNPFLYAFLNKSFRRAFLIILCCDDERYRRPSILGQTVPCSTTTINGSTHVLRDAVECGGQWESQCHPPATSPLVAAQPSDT

5-HT1A = biological target: T2, 5-HT1A (Homo sapiens, UniProt P08908); experiment: 5-HT receptor activity panel (Table 3); type: cell-based; conditions: Table 3
T2 sequence (P08908 1-422): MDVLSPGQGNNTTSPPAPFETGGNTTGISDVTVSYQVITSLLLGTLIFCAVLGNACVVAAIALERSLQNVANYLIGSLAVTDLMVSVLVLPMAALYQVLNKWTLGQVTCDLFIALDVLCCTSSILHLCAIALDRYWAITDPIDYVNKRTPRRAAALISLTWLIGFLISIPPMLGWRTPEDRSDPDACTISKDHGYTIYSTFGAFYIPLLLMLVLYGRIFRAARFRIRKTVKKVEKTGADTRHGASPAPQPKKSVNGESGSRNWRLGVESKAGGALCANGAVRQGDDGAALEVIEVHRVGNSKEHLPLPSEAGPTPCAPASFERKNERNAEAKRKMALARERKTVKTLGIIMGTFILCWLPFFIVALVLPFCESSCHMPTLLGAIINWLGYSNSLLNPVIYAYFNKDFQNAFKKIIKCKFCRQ

[4] = plasma and brain PK predicted in humans; conditions: Human (predicted); for Kp: brain; for clearance: read-out: Cltot (converted); for half-life: read-out: T1/2 Vz (converted); for Vd: read-out: Vz
From the text: as §1

healthy rat subjects = experiment: locomotor activity test in healthy rats; type: in vivo; conditions: intraperitoneal dose of up to 30 mg/kg
Procedure: (§3) Additional experimentation was also done on compound 109. Namely, an intraperitoneal dose of up to 30 mg/kg of compound 109 and various reference compounds were delivered into healthy rat subjects and surgery induced abnormal rat subjects (olfactory bulbectomized rats). […] Without being bound by theory, it is believed that these observations are a result of long lasting neuroplasticity effects of compound 109 on surgery induced abnormal rat subjects. FIG. 5 summarizes the results of this experiment. Using psilocybin as a comparative psychedelic, the results of this experiment support the notion that compound 109 provides sustainable acute antidepressant effects. Note that “VEH” refers to vehicle, and “PSIL” refers to psilocybin, in FIG. 5.

[5] = system: olfactory bulbectomized rats; experiment: locomotor/behavioral activity in olfactory bulbectomized rats; type: in vivo, rat; conditions: single intraperitoneal dose, FIG. 5
Procedure: as §3

[6] = system: α 1a, α 2a, Kappa (KOP), μ (MOP), 5-HT transporter (SERT); experiment: follow up functional assays on SafetyScreen44 hits
Procedure: Various compounds disclosed herein were subjected to an in vitro SafetyScreen44™ panel for identifying off-target activity. Compounds of interest that are identified in the panel are then tested in follow up functional assays to identify if such compounds have a significant off-target risk. […] It is predicted that other compounds share similar characteristics with compound 109 and also lack of the off-target activity.

[7] = read-out: Brain Plasma AUC Ratio

## COc1cc(C(F)(F)F)ccc1CCNCc1ccccc1O [Cpd #93]
5-HT2A receptor; 5-HT2A BRET EC50 (nM), Table 2, at least three replicate trials
  EC50: 0.7 nM and 1.17 nM
5-HT2A receptor; 5-HT2A EC50, nM, Table 3 panel
  EC50: 0.3 nM
5-HT2A receptor; EC50 BRET 2A, Table 4, unit inferred
  EC50: 1.2 nM
5-HT2A receptor; Table 2
  5-HT2A BRET Eff %: 96% and 91%
5-HT2A receptor; Table 3 panel
  5-HT2A Eff, %: 96%
[1]; rat, read-out: Brain/plasma Ratio
  Kp: 19.6
[1]; rat, plasma
  clearance: 127 mL/min/kg
  half-life: 1.38 h
  Vd: 15.2 L/kg
Plasma PK in dog
  clearance: 53.1 mL/min/kg
  half-life: 1.66 h
  Vd: 7.7 L/kg
hepatocyte
  Predicted hepatic CL: <88.90 mL/min/kg
[2]
  hepatocyte CLint: < 614 µL/min/1e6 cells
  half-life: > 2.26 min
  CLint scaled: < 7250 mL/min/kg
[3]; read-out: Brain/plasma Ratio
  Kp: 15.6
[3]; plasma
  clearance: 197 mL/min/kg
  half-life: 0.9 h
  Vd: 15.1 L/kg
5-HT6
  EC50: 0.6 nM
5-HT6; Table 3
  5-HT6 Eff, %: −12%
5-HT1B
  5-HT1B EC50, nM: Not active
5-HT4
  5-HT4 EC50, nM: Not active
5-HT1A
  5-HT1A EC50, nM: Not active
[4]; read-out: Brain/plasma Ratio
  Kp: 9.55
[4]; plasma
  clearance: 37.9 mL/min/kg
  half-life: 1.95 h
  Vd: 6.39 L/kg

## CSc1ccccc1CNCCc1ccc(C#N)cc1O [Cpd #109]
5-HT2A receptor; Table 2, at least three replicate trials, read-out: 5-HT2A BRET EC50
  EC50: 5.1 nM
5-HT2A receptor; Table 2
  5-HT2A BRET Eff %: 102%
5-HT2A receptor; Table 3 panel
  5-HT2A Eff, %: 99%
5-HT2A receptor; Table 3 panel, read-out: 5-HT2A EC50
  EC50: 4.8 nM
5-HT2A receptor; Table 4, unit inferred, read-out: EC50 BRET 2A
  EC50: 4.8 nM
[1]; healthy rat subjects (text b114)
  plasma t1/2: less than an hour
[1]; plasma, rat, IM, read-out: IM f (%)
  bioavailability: 92.8%
[1]; rat, read-out: Brain Plasma AUC Ratio
  Kp: 2.18
[1]; rat, plasma
  clearance: 53.4 mL/min/kg
  half-life: 2.1 h
  Vd: 9.37 L/kg
Healthy rat subjects
  effect on normal locomotor activity: no suggestion that an intraperitoneal dose of up to 30 mg/kg of such compound affects the normal locomotor activity
[5]
  inhibition of abnormal behavioral activity: significant and long lasting inhibition of abnormal behavioral activity
Plasma PK in dog; Dog, IM, read-out: IM f (%)
  bioavailability: 120%
Plasma PK in dog
  clearance: 39.7 mL/min/kg
  half-life: 1.3 h
  Vd: 4.33 L/kg
hepatocyte
  Hepatic Extraction Ratio (E): >0.99
  Predicted hepatic CL: >88.90 mL/min/kg
[2]
  hepatocyte CLint: > 614 µL/min/1e6 cells
  half-life: < 2.26 min
  CLint scaled: > 7250 mL/min/kg
[3]; [7]
  Kp: 8.39
[3]; plasma, IM, read-out: IM f (%)
  bioavailability: 144%
[3]; plasma
  clearance: 286 mL/min/kg
  half-life: 0.6 h
  Vd: 14 L/kg
5-HT6; Table 3
  5-HT6 Eff, %: 18%
5-HT6; Table 3, read-out: 5-HT6 EC50
  EC50: 5390 nM
5-HT1B
  5-HT1B EC50, nM: Not active
5-HT4
  5-HT4 Eff, %: −3%
5-HT4; read-out: 5-HT4 EC50
  EC50: 0.2 nM
[6]
  Follow up studies (off-target activity): No significant
[6]; listed as compound 109
  Follow up studies (off-target activity): does not possess significant off-target activity
5-HT1A
  5-HT1A Eff, %: 3%
5-HT1A; read-out: 5-HT1A EC50
  EC50: 4270 nM
[4]; [7]
  Kp: 2.14
[4]; plasma, IM, read-out: IM f (%)
  bioavailability: 100%
[4]; plasma
  clearance: 16.2 mL/min/kg
  half-life: 2 h
  Vd: 2.78 L/kg

Reference: patent publication US20250074871A1, “PHENETHYLAMINES AND METHODS OF PREPARATION THEREOF” (priority 2022, published 2025)
